These results are taken from patent US12528786B2, “Plasma kallikrein inhibitors” (Merck Sharp & Dohme LLC, priority 2020, dated 2026).

As usually defined, the IC50 is the point on the concentration scale where inhibition reaches its midpoint. A higher IC50 goes with lower potency.

T1 sequence (P03952 391-638 limits assumed): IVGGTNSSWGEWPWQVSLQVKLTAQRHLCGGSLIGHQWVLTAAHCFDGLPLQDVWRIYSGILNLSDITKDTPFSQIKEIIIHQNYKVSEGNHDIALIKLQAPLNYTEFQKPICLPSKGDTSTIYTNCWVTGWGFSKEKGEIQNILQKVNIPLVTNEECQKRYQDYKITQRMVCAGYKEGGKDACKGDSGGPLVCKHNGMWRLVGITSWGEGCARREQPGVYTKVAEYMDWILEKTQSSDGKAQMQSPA
T1 sequence (P03952 20-390 partner limits assumed): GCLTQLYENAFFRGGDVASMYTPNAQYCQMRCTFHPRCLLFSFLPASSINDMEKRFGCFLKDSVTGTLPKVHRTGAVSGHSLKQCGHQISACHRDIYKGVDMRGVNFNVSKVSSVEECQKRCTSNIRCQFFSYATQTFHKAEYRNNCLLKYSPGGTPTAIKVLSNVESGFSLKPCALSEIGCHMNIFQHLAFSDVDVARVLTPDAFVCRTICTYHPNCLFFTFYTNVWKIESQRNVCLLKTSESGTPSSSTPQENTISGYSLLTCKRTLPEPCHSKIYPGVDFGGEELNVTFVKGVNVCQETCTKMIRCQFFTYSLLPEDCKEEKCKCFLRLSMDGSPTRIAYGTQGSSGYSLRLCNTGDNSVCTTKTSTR

This experiment has as its target T1, Human plasma kallikrein (Homo sapiens, UniProt P03952).
T1 construct: yields a heavy chain (371 amino acids) and a light chain (248 amino acids); purchased Enzyme Research Laboratories
Nature of the experiment: Kallikrein Assay (fluorogenic substrate hydrolysis, AFC release). In kind it is biochemical. The note with it: purified Human plasma kallikrein 0.5 nM; substrate Acetyl-K—P—R-AFC 100 mM; 50 mM HEPES pH 7.4. The essentials: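 Enzyme–inhibitor equilibrated before substrate dilution to ≤0.2 Km; human plasma kallikrein at 0.5 nM final, Acetyl-K-P-R-AFC substrate, HEPES pH 7.4 buffer with NaCl, CaCl2, PEG 8000, at room temperature or 37° C. Linear-phase fluorescence rate gives percent inhibition, four-parameter logistic IC50, then Cheng-Prusoff Ki.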
For the molecule `Cc1c([C@H](C)n2cc(C(=O)NC34CCCC(c5cc(Cl)ccc5C#N)(C3)C4)nn2)cnc(N2C[C@H]3C[C@H]3C2=O)c1C` [Example 150, N-(5-(5-chloro-2-cyanophenyl)bicyclo[3.1.1]heptan-1-yl)-1-((S)-1-(4,5-dimethyl-6-((1R,5S)-2-oxo-3-azabicyclo[3.1.0]hexan-3-yl)pyridin-3-yl)ethyl)-1H-1,2,3-triazole-4-carboxamide], inhibition was half-maximal at 5.8 nM (IC50).
Regarding `Cc1ccc(C#N)c([C@H]2C[C@@H](NC(=O)c3cnn(C(C)c4cnc(N5C[C@H]6C[C@H]6C5=O)c(C)c4C)c3)C2)c1` (single isomer, unassigned) [Example 45, N-((cis)-3-(2-cyano-5-methylphenyl)cyclobutyl)-1-((R or S)-1-(4,5-dimethyl-6-((1R,5S)-2-oxo-3-azabicyclo[3.1.0]hexan-3-yl)pyridin-3-yl)ethyl)-1H-pyrazole-4-carboxamide], the IC50 amounted to 0.2 nM.
The molecule `CC(c1cnc(N2C[C@H]3C[C@H]3C2=O)nc1)n1cc(C(=O)N[C@H]2C[C@@H](c3cc(Cl)ccc3C#N)C2)cn1` (single isomer, unassigned) [Example 3, N-((cis)-3-(5-chloro-2-cyanophenyl)cyclobutyl)-1-((R or S)-1-(2-((1R,5S)-2-oxo-3-azabicyclo[3.1.0]hexan-3-yl)pyrimidin-5-yl)ethyl)-1H-pyrazole-4-carboxamide] gave an IC50 of 6.7 nM.
In the case of `Cc1cc(N2C[C@H]3C[C@H]3C2=O)nnc1C(C)n1cc(C(=O)N[C@H]2C[C@@H](c3cc(Cl)ccc3C#N)C2)cn1` (single isomer, unassigned) [Example 47, N-((cis)-3-(5-chloro-2-cyanophenyl)cyclobutyl)-1-((R or S)-1-(4-methyl-6-((1R,5S)-2-oxo-3-azabicyclo[3.1.0]hexan-3-yl)pyridazin-3-yl)ethyl)-1H-pyrazole-4-carboxamide], the IC50 stood at 2.1 nM.
To `Cc1c([C@H](C)n2cc(C(=O)N[C@H]3C[C@@](C)(c4cc(Cl)ccc4C#N)C3)nn2)cnc(N2C[C@H]3C[C@H]3C2=O)c1C` [Example 141, N-((cis)-3-(5-chloro-2-cyanophenyl)-3-methylcyclobutyl)-1-((S)-1-(4,5-dimethyl-6-((1R,5S)-2-oxo-3-azabicyclo[3.1.0]hexan-3-yl)pyridin-3-yl)ethyl)-1H-1,2,3-triazole-4-carboxamide] belongs 0.2 nM; to `CC(c1ncc(N2C[C@H]3C[C@H]3C2=O)cc1F)n1cc(C(=O)N[C@H]2C[C@@H](c3cc(Cl)ccc3C#N)C2)cn1` (single isomer, unassigned) [Example 26, N-((cis)-3-(5-chloro-2-cyanophenyl)cyclobutyl)-1-((R or S)-1-(3-fluoro-5-((1R,5S)-2-oxo-3-azabicyclo[3.1.0]hexan-3-yl)pyridin-2-yl)ethyl)-1H-pyrazole-4-carboxamide], 3.7 nM.
`Cc1cc(N2C[C@H]3C[C@H]3C2=O)ncc1C(C)n1cc(C(=O)N[C@H]2C[C@@](F)(c3cc(Cl)ccc3C#N)C2)nn1` (single isomer, unassigned) [Example 76, N-(cis)-3-(5-chloro-2-cyanophenyl)-3-fluorocyclobutyl)-1-((S or R)-1-(4-methyl-6-((1R,5S)-2-oxo-3-azabicyclo[3.1.0]hexan-3-yl)pyridin-3-yl)ethyl)-1H-1,2,3-triazole-4-carboxamide] returned a half-inhibitory concentration (IC50) of 15.7 nM.
The molecule `C[C@H](c1cncc(N2C[C@H]3C[C@H]3C2=O)c1)n1cc(C(=O)N[C@H]2C[C@@H](c3cc(Cl)ccc3C#N)C2)nn1` (single isomer, unassigned) [Example 137] registered an IC50 of 1.6 nM.
In the case of `Cc1c([C@@H](C)n2cc(C(=O)NC3CC(c4cc(Cl)ccc4C#N)C3)nn2)cnc(N2C[C@H]3C[C@H]3C2=O)c1O` (single isomer, unassigned) [Example 163], half-maximal inhibition (IC50) required 1.1 nM.
The molecule `Cc1cc(N2C[C@H]3C[C@H]3C2=O)ncc1C(C)n1cc(C(=O)N[C@H]2C[C@@H](c3cc(Cl)ccn3)C2)nn1` (single isomer, unassigned) [Example 73, N-((cis)-3-(4-chloropyridin-2-yl)cyclobutyl)-1-((R or S)-1-(4-methyl-6-((1R,5S)-2-oxo-3-azabicyclo[3.1.0]hexan-3-yl)pyridin-3-yl)ethyl)-1H-1,2,3-triazole-4-carboxamide] registered a 50% inhibitory concentration (IC50) of 107 nM.
`Cc1cc(N2C[C@H]3C[C@H]3C2=O)ncc1[C@@H](C)n1cc(C(=O)NC2CC(c3cc(Cl)ccc3C#N)C2)c(C(C)O)n1` (single isomer, unassigned) [Example 170] returned an IC50 of 0.7 nM.
`Cc1cc(C(C)(C)n2cc(C(=O)N[C@H]3C[C@@H](c4cc(Cl)ccc4C#N)C3)nn2)cnc1N1C[C@H]2C[C@H]2C1=O` [Example 61, N-((cis)-3-(5-chloro-2-cyanophenyl)cyclobutyl)-1-(2-(5-methyl-6-((1R,5S)-2-oxo-3-azabicyclo[3.1.0]hexan-3-yl)pyridin-3-yl)propan-2-yl)-1H-1,2,3-triazole-4-carboxamide]: inhibition was half-maximal at 10.1 nM (IC50).
`Cc1cc([C@@H](C)n2cc(C(=O)N[C@H]3C[C@@H](c4cc(Cl)ccc4C#N)C3)nn2)cnc1N1C[C@H]2C[C@H]2C1=O` (single isomer, unassigned) [Example 55] displayed an IC50 of 0.6 nM.
As for `COc1cc(C(C)n2cc(C(=O)N[C@H]3C[C@@](C)(c4cc(Cl)ccc4C#N)C3)nn2)cnc1N1C[C@H]2C[C@H]2C1=O` (single isomer, unassigned) [Example 106, N-((cis)-3-(5-chloro-2-cyanophenyl)-3-methylcyclobutyl)-1-((S or R)-1-(5-methoxy-6-((1R,5S)-2-oxo-3-azabicyclo[3.1.0]hexan-3-yl)pyridin-3-yl)ethyl)-1H-1,2,3-triazole-4-carboxamide], the IC50 amounted to 2.2 nM.
With `Cc1c(C(C)n2cc(C(=O)N[C@H]3C[C@@H](c4cc(Cl)ccc4C#N)C3)nn2)cnc(N2C[C@H]3C[C@H]3C2=O)c1C` (single isomer, unassigned) [Example 87, N-((cis)-3-(5-chloro-2-cyanophenyl)cyclobutyl)-1-((S or R)-1-(4,5-dimethyl-6-((1R,5S)-2-oxo-3-azabicyclo[3.1.0]hexan-3-yl)pyridin-3-yl)ethyl)-1H-1,2,3-triazole-4-carboxamide], the IC50 is 0.5 nM.
Regarding `Cc1nc(N2C[C@H]3C[C@H]3C2=O)ncc1C(C)n1cc(C(=O)NC2CC(C)(c3cc(Cl)ccc3C#N)C2)nn1` (single isomer, unassigned) [Example 83, N-((cis)-3-(5-chloro-2-cyanophenyl)-3-methylcyclobutyl)-1-((S or R)-1-(4-methyl-2-((1R,5S)-2-oxo-3-azabicyclo[3.1.0]hexan-3-yl)pyrimidin-5-yl)ethyl)-1H-1,2,3-triazole-4-carboxamide], the IC50 amounted to 39.5 nM.
The figure for `[2H][C@]1(c2cc(Cl)ccc2C#N)C[C@@H](NC(=O)c2cn([C@@H](C)c3cnc(N4C[C@H]5C[C@H]5C4=O)cc3C)nn2)C1` [Example 147, N-((cis)-3-(5-chloro-2-cyanophenyl)cyclobutyl-3-d)-1-((S)-1-(4-methyl-6-((1R,5S)-2-oxo-3-azabicyclo[3.1.0]hexan-3-yl)pyridin-3-yl)ethyl)-1H-1,2,3-triazole-4-carboxamide] is 0.6 nM.
For the molecule `Cc1c(C(C)n2cc(C(=O)N[C@H]3C[C@@H](c4cc(Cl)ccc4C#N)C3)cn2)cnc(N2C[C@H]3C[C@H]3C2=O)c1C` (single isomer, unassigned) [Example 39, N-((cis)-3-(5-chloro-2-cyanophenyl)cyclobutyl)-1-((R or S)-1-(4,5-dimethyl-6-((1R,5S)-2-oxo-3-azabicyclo[3.1.0]hexan-3-yl)pyridin-3-yl)ethyl)-1H-pyrazole-4-carboxamide], the IC50 worked out at 0.3 nM.
`Cc1c(C(C)n2cc(C(=O)NC3CC(c4cccc(Cl)c4)C3O)nn2)cnc(N2C[C@H]3C[C@H]3C2=O)c1F` (single isomer, unassigned) [Example 124, N-((1S,2S,3S or 1R,2R,3R)-3-(3-chlorophenyl)-2-hydroxycyclobutyl)-1-((R or S)-1-(5-fluoro-4-methyl-6-((1R,5S)-2-oxo-3-azabicyclo[3.1.0]hexan-3-yl)pyridin-3-yl)ethyl)-1H-1,2,3-triazole-4-carboxamide] returned an IC50 of 4.5 nM.
With `Cc1cc(N2C[C@H]3C[C@H]3C2=O)ncc1C(C)n1cc(C(=O)N[C@H]2C[C@@H](c3cc(Cl)ccc3C(F)F)C2)nn1` (single isomer, unassigned) [Example 71, N-((cis)-3-(5-chloro-2-(difluoromethyl)phenyl)cyclobutyl)-1-((R or S)-1-(4-methyl-6-((1R,5S)-2-oxo-3-azabicyclo[3.1.0]hexan-3-yl)pyridin-3-yl)ethyl)-1H-1,2,3-triazole-4-carboxamide], the IC50 came out at 12.7 nM.
The molecule `Cc1cc([C@](C)(O)c2cc(C(=O)N[C@H]3C[C@@H](c4cc(Cl)ccc4C#N)C3)no2)cnc1N1C[C@H]2C[C@H]2C1=O` (single isomer, unassigned) [Example 157] yielded an IC50 of 24 nM.
For the molecule `Cc1c(C(C)n2cc(C(=O)NC3CC(c4cccc(Cl)c4)C3O)nn2)cnc(N2C[C@H]3C[C@H]3C2=O)c1F` (single isomer, unassigned) [Example 123, N-((1R,2R,3R or 1S,2S,3S)-3-(3-chlorophenyl)-2-hydroxycyclobutyl)-1-((R or S)-1-(5-fluoro-4-methyl-6-((1R,5S)-2-oxo-3-azabicyclo[3.1.0]hexan-3-yl)pyridin-3-yl)ethyl)-1H-1,2,3-triazole-4-carboxamide], the IC50 came out at 41.3 nM.
The figure for `Cc1c(C(C)n2cc(C(=O)NC3CC(c4cccc(Cl)c4)C3O)nn2)nnc(N2C[C@H]3C[C@H]3C2=O)c1C` (single isomer, unassigned) [Example 132, N-((1S,2S,3S or 1R,2R,3R))-3-(3-chlorophenyl)-2-hydroxycyclobutyl)-1-((S or R)-1-(4,5-dimethyl-6-((1R,5S)-2-oxo-3-azabicyclo[3.1.0]hexan-3-yl)pyridazin-3-yl)ethyl)-1H-1,2,3-triazole-4-carboxamide] is 279 nM.
